Series [1] deals with Dermacentor variabilis nymph. The series can be described thus: Antiparasitic activity after administration to rats: ticks. In kind it is in vivo. As to conditions: 11.97 mg/kg sc, Dermacentor variabilis nymph. An outline of the steps:
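Compounds dissolved in glycerol formal, given i.p. or s.c. to rats, 5 per group. Infestation with 30 D. variabilis nymphs (days −2, 7, 14, 21, 28, 35) and 30 adult C. felis (days −1, 8, 15, 22, 29, 36), with counts on days 2, 9, 16, 23, 30, 37. Percent efficacy compares mean live attached ticks or live fleas with a placebo-treated group.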

Series [2] is described as follows: Evaluation of pharmacokinetics in vivo (rat). The conditions noted are these: concentration of Parent Drug A after admin. of the named substance. The procedure: Evaluation of Pharmacokinetics (In Vivo) To evaluate the pharmacokinetics of test substances in vivo, these test substances are dissolved in appropriate formulation vehicles (ethanol, dimethyl sulfoxide, PEG400, glycerol formal etc.), or mixtures thereof. The test substances are then administered to rats or dogs intravenously, orally or subcutaneously. The intravenous application is performed as bolus. Administered doses range usually between 0.1 to 5 mg/kg, however, doses for subcutaneous and oral administration can exceed this range up to doses of 30 mg/kg. Blood samples are retrieved via a catheter, exsanguination or venous puncture in vials containing appropriate anticoagulants, such as lithium heparinate or potassium EDTA. Plasma is generated from the blood via centrifugation. Blood samples are taken over an appropriate time interval, usually lasting up to 144 h after administration. If necessary, samples from later time points can also be taken. If possible, time points are chosen so that the initial absorption phase, the maximum plasma concentration (Cmax), and exposure within a certain time interval (AUC(0-t))aer described. Furthermore, it is possible to also retrieve organ-, tissue- and urine samples. The quantitative measurement of the test substances in the samples is performed using calibration curves in the respective matrices. The protein content of the samples is precipitated using acetonitrile or methanol. Thereafter, the samples are separated using HPLC in combination with reversed phase chromatography columns. The HPLC system is coupled to a triple quadrupole mass spectrometer via an electrospray interface. The evaluation of the plasma concentration/time profiles are afterwards evaluated using a validated pharmacokinetics evaluation program. […] Relative bioavailability (Frel) was used to describe the exposure of parent drug after prodrug administration compared to the exposure of parent drug after direct administration of compound A which was normalised to 100%.

Series [3] in a line: Measurement of stability of prodrugs in buffer at pH 7.4. In kind it is physicochemical. The conditions noted are these: PBS buffer pH 7.4, 37° C., HPLC peak area, read-out: % Recovery after 24 h (stability at pH 7.4). Summed up:
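Test compound (0.15 mg) in DMSO/acetonitrile was mixed with PBS pH 7.4 and held at 37 °C for 24 h. Remaining compound was followed by HPLC as peak area percentage of total area. The final time point was also analysed by HPLC-MS.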

Series [4] can be described thus: Measurement of solubility in buffer at pH 6.5. In kind it is physicochemical. As to conditions: aqueous buffer, kinetic from dmso stock; PBS buffer pH 6.5, shaken 24 h at rt, LC-MSMS; read-out: Solubility of example compounds at pH 6.5. Summed up: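 DMSO stock (50 g/L) diluted into PBS pH 6.5, nominal final […], shaken 24 h at rt. After centrifugation, supernatant concentration quantified by LC-MSMS against a 1.2–600 ng/mL calibration curve.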

The nature of series [5]: Degradation of prodrugs and release of parent drug in rat plasma. In kind it is in vitro ADME. The conditions noted are these: male, Hannover-Janvier RjHan, rat plasma (Li-heparin), 37° C., percent area of prodrug at t0. An outline of the steps:
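Prodrug spiked into male Hannover rat Li-heparin plasma at 37 °C. Samples at 0.17–4 h quenched in acetonitrile/citric acid pH 3, then analysed by HPLC, with HPLC-MS at final time point. Prodrug loss and parent drug appearance given as percent area of prodrug at t0.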

Experimental findings from patent US20220306585A1, “PYRAZOLE DERIVATIVES FOR CONTROLLING ARTHROPODS” (Bayer Animal Health GmbH, priority 2019, published 2022) are described below.

SMILES strings stand for the structures. ≈ marks a conversion by molar mass, not a printed value.

Regarding `N#CC1(N(COC(=O)/C=C/C(=O)O)C(=O)c2cc(-c3cnn(-c4c(Cl)cc(C(F)(C(F)(F)F)C(F)(F)F)cc4OC(F)(F)F)c3)ccc2Cl)CC1` [Example 13, (2E)-4-{[(2-Chloro-5-{1-[2-chloro-4-(1,1,1,2,3,3,3-heptafluoropropan-2-yl)-6-(trifluoromethoxy)phenyl]-1H-pyrazol-4-yl}benzoyl)(1-cyanocyclopropyl)amino]methoxy}-4-oxobut-2-enoic acid], the “In-vivo Efficacy SD2” value in series [1] (study day 2) was found to be 100%. For the same compound, in series [1] (study day 9), the “In-vivo Efficacy SD9” value is listed as 100%. For the same compound, in series [1] (study day 16), the “In-vivo Efficacy SD16” value turned out to be 99%. Further, in series [1] (study day 23), the “In-vivo Efficacy SD23” value was 77%. In addition, the “In-vivo Efficacy SD30” value in series [1] (study day 30) was 59%. The “In-vivo Efficacy SD37” value in series [1] (study day 37) came to 49%. In addition, the results for the “AUC(0-144 h)norm of parent drug A” value in series [2] (iv bolus) and in series [2] (sc) were 7.3 kg·h/L and 5.9 kg·h/L, respectively. The recovery at 24 h, 0.1 mg/mL in series [3] was found to be 97%. Also, the solubility at 24 h in series [4] was 18 µg/mL (≈ 23.2 µM). The recovery at 0.17 h, 39 µg/mL in series [5] (0.17 h) was 96%. Also, in series [5] (0.5 h), the recovery at 0.5 h, 39 µg/mL amounted to 85%. For the same compound, the recovery at 1 h, 39 µg/mL in series [5] (1 h) was 63%. For the same compound, the recovery at 1.5 h, 39 µg/mL in series [5] (1.5 h) was determined as 49%. Moreover, in series [5] (2 h), the recovery at 2 h, 39 µg/mL was found to be 35%. In series [5] (4 h), the recovery at 4 h, 39 µg/mL stood at 14%.
